Assay results taken from ChEMBL document CHEMBL1135216, “New 2-(1-adamantylcarbonyl)pyridine and 1-acetyladamantane thiosemicarbazones-thiocarbonohydrazones: cell growth inhibitory, antiviral and antimicrobial activity evaluation” (Bioorg Med Chem Lett, 2002).
≈ marks a conversion by molar mass, not a printed value.

Assays:
CCRF-CEM [1] = experiment: Tested for the inhibitory concentration against cell growth of human leukemic cell line CCRF-CEM; format: functional
CCRF-CEM [2] = experiment: Tested for the concentration required to reduce the viability of leukemia cells by 50% against cell growth of T cell leukemia cell line CCRF-CEM using MTT assay; format: functional; conditions: Homo sapiens
CCRF-CEM [3] = experiment: Tested for the inhibitory concentration against cell growth of Tcell leukemic cell line CCRF-CEM using MTT assay; format: functional; conditions: Homo sapiens
E6SM [4] = experiment: Tested for antiviral activity against VSV-virus in human embryonic skin muscle fibroblasts; format: functional; conditions: Muscle tissue
E6SM [5] = experiment: Tested for antiviral activity against herpes simplex virus type 1(KOS) in E6SM cell line(human embryonic skin-muscle fibroblasts); format: functional
E6SM [6] = experiment: Tested for antiviral activity against thymidine kinase-deficient (TK-HSV-2G) virus in E6SM cell line(human embryonic skin-muscle fibroblasts); format: functional
E6SM [7] = experiment: Tested for antiviral activity against vaccinia virus in human embryonic skin muscle fibroblast; format: functional; conditions: Muscle tissue
HeLa [8] = experiment: (§1) The compound was tested for antiviral activity against VSV-virus in human epithelial cells; format: functional
E6SM [9] = experiment: Tested for cytotoxic activity in human embryonic skin muscle fibroblast (E6SM); format: functional; conditions: Muscle tissue
E6SM [10] = experiment: Antiviral activity against thymidine kinase-deficient (TK-HSV-1)virus in E6SM cell line(human embryonic skin-muscle fibroblasts); format: functional
Escherichia coli = experiment: Tested for the antimicrobial activity against Escherichia coli ATCC 25922; format: functional
HEL [11] = experiment: Tested for cytotoxic activity in human embryonic lung fibroblast (HEL); format: functional
HEL [12] = experiment: Tested for antiviral activity against human cytomegalovirus (AD-169) in human embryonic lung fibroblasts; format: functional
HEL [13] = experiment: Tested for antiviral activity against thymidine kinase deficient Varicella zoster virus in human embryonic lung fibroblasts; format: functional
HEL [14] = experiment: Tested for antiviral activity against thymidine kinase wild type Varicella zoster virus in human embryonic lung fibroblast; format: functional
HeLa [15] = experiment: Tested for antiviral activity against coxsackie-B4 virus in human epithelial cell line; format: functional
HL-60 [16] = experiment: Tested for the inhibitory concentration against cell growth of human leukemic cell line HL60; format: functional
HL-60 [17] = experiment: Tested for the concentration required to reduce the viability of leukemia cells by 50% against cell growth of HL60 acute myeloid leukemia using MTT assay; format: functional; conditions: Homo sapiens, read-out: LC50 (the source's name)
HL-60 [18] = experiment: Tested for the inhibitory concentration against cell growth of HL60 acute myeloid leukemia using MTT assay; format: functional; conditions: Homo sapiens
HeLa [19] = experiment: Tested for cytotoxic activity in human epithelial cell line (HeLa); format: functional
HuT78 [20] = experiment: Tested for the inhibitory concentration against cell growth of human leukemic cell line HuT78; format: functional
HuT78 [21] = experiment: Tested for the concentration required to reduce the viability of leukemia cells by 50% against cell growth of HuT78 T lymphoma using MTT assay; format: functional; conditions: Homo sapiens
HuT78 [22] = experiment: Tested for the inhibitory concentration against cell growth of HuT78 T lymphoma using MTT assay; format: functional; conditions: Homo sapiens
K562 [23] = experiment: Tested for the concentration required to reduce the viability of leukemia cells by 50% against cell growth of K562 chronic myeloid leukemia using MTT assay; format: functional; conditions: Homo sapiens, read-out: LC50 (the source's name)
K562 [24] = experiment: Tested for the inhibitory concentration against cell growth of K562 chronic myeloid leukemia using MTT assay; format: functional; conditions: Homo sapiens
K562 [25] = experiment: Tested for the inhibitory concentration against cell growth of human leukemic cell line K562; format: functional
Klebsiella pneumoniae = experiment: Tested for the antimicrobial activity against Klebsiella pneumoniae ATCC 13883; format: functional
MOLT-4 [26] = experiment: Tested for the inhibitory concentration against cell growth of human leukemic cell line MOLT-4; format: functional
MT4 [27] = experiment: Tested for effective concentration required to protect MT-4 cells against the cytopathicity of HIV-1(IIIB); format: functional; conditions: Homo sapiens, read-out: LC50 (the source's name)
MT4 [28] = experiment: Tested for effective concentration required to protect MT-4 cells against the cytopathicity of HIV-2(ROD); format: functional, cell-based; conditions: Homo sapiens
MOLT-4 [29] = experiment: Tested for the concentration required to reduce the viability of leukemia cells by 50% against cell growth of T cell leukemia cell line MOLT-4 using MTT assay; format: functional; conditions: Homo sapiens
MOLT-4 [30] = experiment: Tested for the inhibitory concentration against cell growth of Tcell leukemic cell line MOLT-4 using MTT assay; format: functional; conditions: Homo sapiens
RPMI-8226 [31] = experiment: Tested for the inhibitory concentration against cell growth of human leukemic cell line RPMI8226; format: functional
RPMI-8226 [32] = experiment: Tested for the concentration required to reduce the viability of leukemia cells by 50% against cell growth of RPMI8226 multiple myeloma using MTT assay; format: functional; conditions: Homo sapiens, read-out: LC50 (the source's name)
RPMI-8226 [33] = experiment: Tested for the inhibitory concentration against cell growth of […] multiple myeloma using MTT assay; format: functional; conditions: Homo sapiens
Staphylococcus aureus = experiment: Tested for the antimicrobial activity against Staphylococcus aureus ATCC 6538; format: functional
[34] = tested on: Staphylococcus epidermidis; experiment: Tested for the antimicrobial activity against Staphylococcus epidermidis ATCC 12228; format: functional
Staphylococcus hominis = experiment: Tested for the antimicrobial activity against Staphylococcus hominis ATCC 27844; format: functional
Vero [35] = experiment: Tested for cytotoxic activity in African green monkey kidney cells (Vero); format: functional; conditions: Chlorocebus sabaeus
Vero [36] = experiment: Tested for antiviral activity against Punta toro virus in African green monkey kidney cell (Vero); format: functional; conditions: Chlorocebus sabaeus
Vero [37] = experiment: Tested for antiviral activity against Reo-1 virus in African green monkey kidney cell (Vero); format: functional; conditions: Chlorocebus sabaeus
Vero [38] = experiment: Tested for antiviral activity against Sindbis virus in African green monkey kidney cell (Vero); format: functional; conditions: Chlorocebus sabaeus
Vero [39] = experiment: Tested for antiviral activity against coxsackie B-4 virus in African green monkey kidney cell (Vero); format: functional; conditions: Chlorocebus sabaeus
Vero [40] = experiment: Tested for antiviral activity against parainfluenza virus in african green monkey kidney cell (Vero); format: functional; conditions: Chlorocebus sabaeus
MT4 [41] = experiment: Tested for cytotoxic concentration required to reduce the viability of MT-4 cells by 50%; format: functional, cell-based; conditions: Homo sapiens, read-out: EC50 (the source's name)
E6SM [42] = experiment: as §1; format: functional
E6SM [43] = experiment: Tested for antiviral activity against thymidine kinase-deficient (TK-HSV-2G) virus in E6SM cell line(human embryonic skin-muscle fibroblasts)

`C/C(=N/N=C(/S)NN)C12CC3CC(CC(C3)C1)C2` was tested, and the GI50 (CCRF-CEM [1]) was 36.8 µM, the TGI (CCRF-CEM [2]) was 100 µM and the TGI (CCRF-CEM [3]) was 100 µM. For the same compound, the MIC (E6SM [4]) was over 16 µg/mL, the MIC (E6SM [5]) was over 16 µM and the MIC (E6SM [6]) was over 16 µg/mL. For the same compound, the MIC (E6SM [7]) was over 16 µg/mL, the MIC (HeLa [8]) was over 16 µg/mL and the MCC (E6SM [9]) was over 80 µg/mL. It also gave an MIC (E6SM [10]) of over 16 µg/mL, an MIC (Escherichia coli) of over 3760 µg/mL and an MCC (HEL [11]) of over 20 µg/mL. The MIC (HEL [12]) was over 5 µg/mL, the MIC (HEL [13]) was over 20 µg/mL and the MIC (HEL [14]) was 10.5 µg/mL (≈ 39.4 µM). The MIC (HeLa [15]) was over 16 µg/mL, the GI50 (HL-60 [16]) was 48.7 µM and the CC50 (HL-60 [17]) was 100 µM. The TGI (HL-60 [18]) was 92 µM, the MCC (HeLa [19]) was 80 µg/mL and the GI50 (HuT78 [20]) was 20.5 µM. For the same compound, the TGI (HuT78 [21]) was 100 µM, the TGI (HuT78 [22]) was 100 µM and the CC50 (K562 [23]) was 100 µM. For the same compound, the TGI (K562 [24]) was 68.4 µM, the GI50 (K562 [25]) was 14.7 µM and the MIC (Klebsiella pneumoniae) was over 3760 µg/mL. The GI50 (MOLT-4 [26]) was 22.2 µM, the EC50 (MT4 [27]) was over 7 µM and the EC50 (MT4 [28]) was over 7 µM. It also gave a TGI (MOLT-4 [29]) of 100 µM, a TGI (MOLT-4 [30]) of 100 µM and a GI50 (RPMI-8226 [31]) of 94.2 µM. It also gave a CC50 (RPMI-8226 [32]) of 100 µM, a TGI (RPMI-8226 [33]) of 100 µM and an MIC (Staphylococcus aureus) of over 3760 µg/mL. The MIC [34] was over 3760 µg/mL, the MIC (Staphylococcus hominis) was over 3760 µg/mL and the MCC (Vero [35]) was 80 µg/mL. It also gave an MIC (Vero [36]) of over 80 µg/mL, an MIC (Vero [37]) of over 80 µg/mL and an MIC (Vero [38]) of over 80 µg/mL. It also gave an MIC (Vero [39]) of over 80 µg/mL, an MIC (Vero [40]) of over 80 µg/mL and a CC50 (MT4 [41]) of 7.1 µM.

`C/C(=N/N=C(\N)S)C12CC3CC(CC(C3)C1)C2` showed a GI50 (CCRF-CEM [1]) of 23.6 µM, a TGI (CCRF-CEM [2]) of 86.7 µM and a TGI (CCRF-CEM [3]) of 55.2 µM. For the same compound, the MIC (E6SM [4]) was over 400 µg/mL, the MIC (E6SM [5]) was 240 µg/mL and the MIC (E6SM [7]) was over 400 µg/mL. The MIC (E6SM [42]) was 240 µg/mL (≈ 955 µM), the MCC (E6SM [9]) was over 400 µg/mL and the MIC (E6SM [10]) was over 400 µg/mL. The MIC (Escherichia coli) was over 3980 µg/mL, the MCC (HEL [11]) was 5 µg/mL and the MIC (HEL [12]) was over 2 µg/mL. For the same compound, the MIC (HEL [13]) was over 2 µg/mL, the MIC (HEL [14]) was over 2 µg/mL and the MIC (HeLa [15]) was over 80 µg/mL. For the same compound, the GI50 (HL-60 [16]) was 5.2 µM, the CC50 (HL-60 [17]) was 63.6 µM and the TGI (HL-60 [18]) was 24.1 µM. The MCC (HeLa [19]) was 400 µg/mL, the GI50 (HuT78 [20]) was 2.3 µM and the TGI (HuT78 [21]) was 83.1 µM. For the same compound, the TGI (HuT78 [22]) was 29.1 µM, the CC50 (K562 [23]) was 62.6 µM and the TGI (K562 [24]) was 10.4 µM. The GI50 (K562 [25]) was 2.8 µM, the MIC (Klebsiella pneumoniae) was over 3980 µg/mL and the GI50 (MOLT-4 [26]) was 2.3 µM. The EC50 (MT4 [27]) was over 8 µM, the EC50 (MT4 [28]) was over 8 µM and the TGI (MOLT-4 [29]) was 59.4 µM. The TGI (MOLT-4 [30]) was 9.3 µM, the GI50 (RPMI-8226 [31]) was 7.1 µM and the CC50 (RPMI-8226 [32]) was 69.2 µM. It also gave a TGI (RPMI-8226 [33]) of 33.3 µM, an MIC (Staphylococcus aureus) of over 3980 µg/mL and an MIC [34] of over 3980 µg/mL. It also gave an MIC (Staphylococcus hominis) of over 3980 µg/mL, an MCC (Vero [35]) of 400 µg/mL and an MIC (Vero [36]) of over 80 µg/mL. For the same compound, the MIC (Vero [37]) was over 80 µg/mL, the MIC (Vero [38]) was over 80 µg/mL and the MIC (Vero [39]) was over 80 µg/mL. The MIC (Vero [40]) was over 80 µg/mL, the CC50 (MT4 [41]) was 7.5 µM and the MIC (E6SM [43]) was over 80 µg/mL.
